The structures appear in SMILES notation.

The target of the assay is T1, recombinant human BACE-1 (rhBACE-1) (Homo sapiens, UniProt P56817).
T1 construct: expressed as only an extracellular region (amino acid 1-460 residues) of recombinant human β-secretase; His tag (C); purchased R&D systems (Minneapolis, Minn.); host or cells: murine myeloma cell line NS0
T1 sequence (P56817 22-460 limits assumed): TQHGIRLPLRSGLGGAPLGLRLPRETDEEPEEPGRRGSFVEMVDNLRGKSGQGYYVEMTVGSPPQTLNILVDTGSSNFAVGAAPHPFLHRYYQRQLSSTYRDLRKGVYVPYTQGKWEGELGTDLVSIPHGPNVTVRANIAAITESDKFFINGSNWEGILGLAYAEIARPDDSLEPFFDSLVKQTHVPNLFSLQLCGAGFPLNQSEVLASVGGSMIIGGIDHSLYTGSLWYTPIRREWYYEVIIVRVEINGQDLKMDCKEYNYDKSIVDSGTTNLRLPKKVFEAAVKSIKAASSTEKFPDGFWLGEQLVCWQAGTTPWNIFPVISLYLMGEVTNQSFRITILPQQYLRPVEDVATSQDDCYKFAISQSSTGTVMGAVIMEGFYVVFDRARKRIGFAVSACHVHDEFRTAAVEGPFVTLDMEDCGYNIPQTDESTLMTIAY
Briefly: BACE1 inhibitory activity, reverse phase HPLC quantitation of N-terminal fragment of fluorogenic substrate. The assay is classed as biochemical. Conditions: 1 μL of inhibitor solution in DMSO (100 μM) in 50 μL reaction; MES buffer pH 5.0; 37° C., 60 minutes. The source says: Experiment Regarding Measurement of BACE1 Inhibitory Activity
Enzyme Used in Measurement
As an enzyme having β-secretase activity, recombinant human BACE-1 (rhBACE-1) purchased from R&D systems (Minneapolis, Minn.) was used. rhBACE-1 is expressed as only an extracellular region (amino acid 1-460 residues) of recombinant human β-secretase, with a His tag at its carboxyl terminal in murine myeloma cell line, NS0. Purified secreted rhBACE1 is a mixture of a pro entity (about 75 kDa) and a mature entity (about 72 kDa).
Assessment of Enzyme Inhibitory Activity
Enzyme inhibitory activity of an inhibitor was assessed by quantitating an N-terminal fragment produced aftercleaving the substrate with BACE1 by reverse HPLC using (7-methoxycoumarin-4-yl)acetyl-[…]2,4-dinitrophenyl)-Arg-Arg-NH2 purchased from Peptide Institute (Osaka, Japan) as a substrate for BACE1. To 40 μL of 62.5 mM 2-(N-morpholino)ethansulfonic acid (MES)-CH3COOH—NaOH buffer (pH 5.0), were added 1 μL of a solution of an inhibitor diluted with DMSO (100 μM), 4 μL of rhBACE-1 (6.25 ng/μL), and 5 μL of an aqueous solution (50% DMSO) of 250 μM substrate (7-methoxycoumarin-4-yl)acetyl-[…]2,4-dinitrophenyl)-Arg-Arg-NH2 to initiate an enzyme reaction. After incubation at 37° C. for 60 minutes, 20 μL of 20% trichloroacetic acid was added to stop the reaction. And, inhibition % was calculated by measuring a fluorescent intensity of the N-terminal fragment (Ex, 328 nm; Em, 393 nm) using reverse phase HPLC (linear gradient of MeCN in aqueous TFA; flow rate, 1.0 mL/min).
BACE1 Inhibitory Activity
Enzyme inhibitory activity of an inhibitor was assessed by quantitating a N-terminal fragment produced after cleavage of a substrate with BACE1 by reverse phase HPLC using (7-methoxycoumarin-4-yl)acetyl-[…]2,4-dinitrophenyl)-Arg-Arg-NH2 purchased from Peptide Institute (Osaka, Japan) as a substrate for BACE1. Recombinant human BACE-1 purchased from R&D systems (Minneapolis, Minn.) was used. To 40 μL of 62.5 mM 2-(N-morpholino)ethansulfonic acid (MES)-CH3COOH—NaOH buffer (pH 5.0), were added 1 μL of a solution of an inhibitor diluted with DMSO (100 μM), 4 μL of BACE1 (6.25 ng/μL), and 5 μL of an aqueous solution (50% DMSO) of 250 μM substrate (7-methoxycoumarin-4-yl)acetyl-[…]2,4-dinitrophenyl)-Arg-Arg-NH2 to initiate an enzyme reaction. After incubation at 37° C. for 60 minutes, 20 μL of 20% trichloroacetic acid was added to stop a reaction. Inhibition % was calculated by measuring a fluorescent intensity of the N-terminal fragment (Ex, 328 nm; Em, 393 nm) using reverse phase HPLC (linear gradient of MeCN in aqueous TFA; flow rate, 1.0 mL/min).
Consider `CC(C)[C@H](NC(=O)[C@@H](N)CNC(=O)c1nnn[nH]1)C(=O)N[C@@H](CC1CCCCC1)C(=O)N[C@@H](Cc1ccccc1)[C@@H](O)C(=O)Nc1cccc(C(=O)O)c1` [Example 137], for which the inhibition at 2 µM was 99.5%.
Regarding `CC(C)C[C@H](NC(=O)[C@@H](NC(=O)[C@@H](N)CCC(=O)O)C(C)C)C(=O)N[C@@H](Cc1ccccc1)[C@@H](O)C(=O)Nc1cccc(C(=O)OCC(F)(F)F)c1` [Example 138], the inhibition at 2 µM turned out to be 59.6%.
On the same count and under the same terms, the same measure for `CCCC[C@H](NC(=O)[C@@H](NC(=O)[C@@H](N)CCC(=O)O)C(C)C)C(=O)N[C@@H](Cc1ccccc1)[C@@H](O)C(=O)Nc1cccc(C(=O)O)c1` [Example 141]: 67.5%.
On to `CC(C)C[C@H](NC(=O)[C@@H](NC(=O)[C@@H](N)CNC(=O)c1cc(=O)[nH]c(=O)[nH]1)C(C)C)C(=O)N[C@@H](Cc1ccccc1)[C@@H](O)C(=O)Nc1cccc(C(=O)O)c1` [Example 142], for which the inhibition at 2 µM was 89.8%.
Same read-out and setting: next, `CC(C)C[C@H](NC(=O)[C@@H](NC(=O)[C@@H](N)CNC(=O)c1ccc[nH]1)C(C)C)C(=O)N[C@@H](Cc1ccccc1)[C@@H](O)C(=O)Nc1cccc(C(=O)O)c1` [Example 143]: 69%; `Cc1c(O)cccc1C(=O)NC[C@H](N)C(=O)N[C@H](C(=O)N[C@@H](CC(C)C)C(=O)N[C@@H](Cc1ccccc1)[C@@H](O)C(=O)Nc1cccc(C(=O)O)c1)C(C)C` [Example 145]: 50.5%.
Turning to `CC(C)C[C@H](NC(=O)[C@@H](NC(=O)C(N)CNC(=O)c1ccccc1O)C(C)C)C(=O)N[C@@H](Cc1ccccc1)[C@@H](O)C(=O)Nc1cccc(C(=O)O)c1` (stereo partly drawn) [Example 146], the inhibition at 100 µM (stock) came out at 74.7%.
On to `Cc1cccc(C(=O)NC[C@H](N)C(=O)N[C@H](C(=O)N[C@@H](CC(C)C)C(=O)N[C@@H](Cc2ccccc2)[C@@H](O)C(=O)Nc2cccc(C(=O)O)c2)C(C)C)c1O` [Example 147], for which the inhibition at 2 µM turned out to be 59.5%.
Take `CC(C)C[C@H](NC(=O)[C@@H](NC(=O)[C@@H](N)CNC(=O)c1cc(O)cc(O)c1)C(C)C)C(=O)N[C@@H](Cc1ccccc1)[C@@H](O)C(=O)Nc1cccc(C(=O)O)c1` [Example 148]: the inhibition at 100 µM (stock) stood at 93.8%.
As for `CC(C)C[C@H](NC(=O)[C@@H](NC(=O)[C@@H](N)CCC(=O)O)C(C)C)C(=O)N[C@@H](Cc1ccccc1)[C@@H](O)C(=O)Nc1cc(Cl)c(O)c(Cl)c1` [Example 149], the inhibition at 2 µM amounted to 80.1%.
Same read-out and setting: the same measure for `CC(C)C[C@H](NC(=O)[C@@H](NC(=O)[C@@H](N)CNC(=O)c1cccc(O)c1)C(C)C)C(=O)N[C@@H](Cc1ccccc1)[C@@H](O)C(=O)Nc1cccc(C(=O)O)c1` [Example 150]: 90.8%.
Same read-out and setting: next, `CC(C)C[C@H](NC(=O)[C@@H](NC(=O)[C@@H](N)CCC(=O)O)C(C)(C)C)C(=O)N[C@@H](Cc1ccccc1)[C@@H](O)C(=O)Nc1cccc(C(=O)O)c1` [Example 151]: 57%; `CC[C@H](C)[C@H](NC(=O)[C@@H](NC(=O)[C@@H](N)CCC(=O)O)C(C)C)C(=O)N[C@@H](Cc1ccccc1)[C@@H](O)C(=O)Nc1cccc(C(=O)O)c1` [Example 153]: 65.8%; `CC(C)C[C@H](NC(=O)[C@@H](NC(=O)[C@@H](N)CNC(=O)c1ccc(O)cc1)C(C)C)C(=O)N[C@@H](Cc1ccccc1)[C@@H](O)C(=O)Nc1cccc(C(=O)O)c1` [Example 154]: 69.9%.
With `CC(C)C[C@H](NC(=O)[C@@H](NC(=O)[C@@H](N)CCC(=O)O)C(C)C)C(=O)N[C@@H](Cc1ccccc1)[C@@H](O)C(=O)NC1CCCC(C(=O)O)C1` (stereo partly drawn) [Example 155], the inhibition at 100 µM (stock) is 69.7%.
Still for that read-out and setting: the same measure for `CC(C)C[C@H](NC(=O)[C@@H](NC(=O)[C@@H](N)CCC(=O)O)C(C)C)C(=O)N[C@@H](Cc1ccccc1)[C@@H](O)C(=O)Nc1cc(Cl)cc(Cl)c1` [Example 156]: 78.3%.
On to `CCOC(=O)COc1c(Cl)cc(NC(=O)[C@H](O)[C@H](Cc2ccccc2)NC(=O)[C@H](CC(C)C)NC(=O)[C@@H](NC(=O)[C@@H](N)CCC(=O)O)C(C)C)cc1Cl` [Example 158], for which the inhibition at 2 µM was 66.1%.
Take `CC(C)[C@H](NC(=O)[C@@H](N)CCC(=O)O)C(=O)N[C@@H](Cc1cc2ccccc2[nH]1)C(=O)N[C@@H](Cc1ccccc1)[C@@H](O)C(=O)Nc1cccc(C(=O)O)c1` [Example 160]: the inhibition at 2 µM was found to be 71.3%.
Regarding `CCC[C@H](NC(=O)[C@@H](NC(=O)[C@@H](N)CCC(=O)O)C(C)C)C(=O)N[C@@H](Cc1ccccc1)[C@@H](O)C(=O)Nc1cccc(C(=O)O)c1` [Example 161], the inhibition at 2 µM was 64.7%.
Still for that read-out and setting: next, `CC(C)C[C@H](NC(=O)[C@@H](NC(=O)[C@@H](N)CCC(=O)O)C(C)C)C(=O)N[C@@H](Cc1ccccc1)[C@@H](O)C(=O)NCc1ccc(Cl)c(Cl)c1` [Example 162]: 71.5%; `CC(C)C[C@H](NC(=O)[C@@H](NC(=O)[C@@H](N)CCC(=O)O)C(C)C)C(=O)N[C@@H](Cc1ccccc1)[C@@H](O)C(=O)Nc1cc(Cl)c(OCC(=O)O)c(Cl)c1` [Example 163]: 88.3%; `CC(C)[C@H](NC(=O)[C@@H](N)CCC(=O)O)C(=O)N[C@H](C(=O)N[C@@H](Cc1ccccc1)[C@@H](O)C(=O)Nc1cccc(C(=O)O)c1)c1ccccc1` [Example 164]: 64.1%.
Same read-out and setting: next, `CC(C)[C@H](NC(=O)[C@@H](N)CCC(=O)O)C(=O)N[C@@H](Cc1cccc2ccccc12)C(=O)N[C@@H](Cc1ccccc1)[C@@H](O)C(=O)Nc1cccc(C(=O)O)c1` [Example 165]: 73.7%; `CC(C)[C@H](NC(=O)[C@@H](N)CCC(=O)O)C(=O)N[C@@H](CCc1ccccc1)C(=O)N[C@@H](Cc1ccccc1)[C@@H](O)C(=O)Nc1cccc(C(=O)O)c1` [Example 166]: 84.9%.
For `CC(C)[C@H](NC(=O)[C@@H](N)CCC(=O)O)C(=O)N[C@@H](Cc1ccc(Cl)cc1)C(=O)N[C@@H](Cc1ccccc1)[C@@H](O)C(=O)Nc1cccc(C(=O)O)c1` [Example 168], the inhibition at 2 µM is 60%.
Turning to `CC(C)C[C@H](NC(=O)[C@@H](NC(=O)[C@@H](N)CCC(=O)O)c1ccccc1)C(=O)N[C@@H](Cc1ccccc1)[C@@H](O)C(=O)Nc1cccc(C(=O)O)c1` [Example 169], the inhibition at 2 µM was determined as 61.6%.
`CC(C)[C@H](NC(=O)[C@@H](N)CCC(=O)O)C(=O)N[C@@H](Cc1ccc(Cl)c(Cl)c1)C(=O)N[C@@H](Cc1ccccc1)[C@@H](O)C(=O)Nc1cccc(C(=O)O)c1` [Example 170]: the inhibition at 2 µM stood at 60.5%.
Same read-out and setting: next, `CC(C)C[C@H](NC(=O)[C@@H](NC(=O)[C@@H](N)CNC(=O)c1cc(N)cc(C(=O)O)c1)C(C)C)C(=O)N[C@@H](Cc1ccccc1)[C@@H](O)C(=O)Nc1cccc(C(N)=O)c1` [Example 171]: 91.8%; `CC(C)C[C@H](NC(=O)[C@@H](NC(=O)[C@@H](N)CNC(=O)c1cccc(O)c1O)C(C)C)C(=O)N[C@@H](Cc1ccccc1)[C@@H](O)C(=O)Nc1cccc(C(=O)O)c1` [Example 172]: 89.5%.
Take `CC(C)C[C@H](NC(=O)[C@@H](NC(=O)[C@@H](N)CNC(=O)c1ccc(O)cc1O)C(C)C)C(=O)N[C@@H](Cc1ccccc1)[C@@H](O)C(=O)Nc1cccc(C(=O)O)c1` [Example 173]: the inhibition at 100 µM (stock) was found to be 86.1%.
Turning to `CC(C)C[C@H](NC(=O)[C@@H](NC(=O)[C@@H](N)CNC(=O)c1ccco1)C(C)C)C(=O)N[C@@H](Cc1ccccc1)[C@@H](O)C(=O)Nc1cccc(C(=O)O)c1` [Example 174], the inhibition at 2 µM worked out at 81.8%.
Same read-out and setting: next, `CC(C)C[C@H](NC(=O)[C@@H](NC(=O)[C@@H](N)CNC(=O)c1cc(N)cc(C(=O)O)c1)C(C)C)C(=O)N[C@@H](CSc1ccccc1)[C@@H](O)C(=O)Nc1cccc(C(=O)O)c1` [Example 177]: 98.5%; `Cc1cc(NC(=O)[C@H](O)[C@H](Cc2ccccc2)NC(=O)[C@H](CC(C)C)NC(=O)[C@@H](NC(=O)[C@@H](N)CCC(=O)O)C(C)C)cc(C)c1OCC(=O)O` [Example 178]: 73.4%.

Source of the values: patent US7312188B2, “Peptide derivatives having β-secretase inhibitory activity” (priority 2003, dated 2007).
